The values below come from patent publication US12403132B2, “Methods of treating bone marrow failure syndromes and compositions for use in the same” (The Board of Trustees of the Leland Stanford Junior …, priority 2020, dated 2025).

Experiment [1] deals with T1, NLK (Homo sapiens, UniProt Q9UBE8).
T1 sequence (Q9UBE8 1-527): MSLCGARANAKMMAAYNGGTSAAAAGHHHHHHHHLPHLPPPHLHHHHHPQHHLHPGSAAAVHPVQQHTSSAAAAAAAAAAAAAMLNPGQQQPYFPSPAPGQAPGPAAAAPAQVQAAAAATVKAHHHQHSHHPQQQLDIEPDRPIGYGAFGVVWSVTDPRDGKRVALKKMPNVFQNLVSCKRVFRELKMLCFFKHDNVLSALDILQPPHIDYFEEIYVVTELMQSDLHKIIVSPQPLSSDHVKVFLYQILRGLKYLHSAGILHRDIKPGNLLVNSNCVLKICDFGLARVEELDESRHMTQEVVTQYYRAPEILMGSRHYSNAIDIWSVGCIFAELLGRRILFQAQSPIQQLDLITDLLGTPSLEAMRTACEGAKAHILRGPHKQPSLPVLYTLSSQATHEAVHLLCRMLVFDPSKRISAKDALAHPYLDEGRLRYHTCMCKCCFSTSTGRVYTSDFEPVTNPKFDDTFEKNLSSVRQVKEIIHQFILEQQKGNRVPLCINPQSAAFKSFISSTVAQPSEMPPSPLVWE
The experiment in a line: Kinase assay of NLK immunopurified from treated differentiating human progenitors. Also on record: 5000 cells per treatment were lysed and immunopurified NLK was subjected to in vitro kinase assay; endogenous in cells; host or cells: human cord blood CD34+ HSPCs transduced with shLuc / shRPS19 / shRPL11, differentiating in erythroid medium. Format: cell-based. The conditions noted are these: for reduction in kinase activity of NLK immuno-precipitated from treated cultures: RPS19-insufficient human progenitors. Here is the method:
FIG. 7. SD208 increases erythroid expansion in human model of DBA through inhibition of NLK and not TGFβ. (a) Differentiating cord blood CD34+ progenitors were transduced with shRNA against luciferase or RPS19 and treated with inhibitors at working concentrations for TGFβ inhibition every three days. Cells were counted and CD235+ erythroid cells were assessed by flow cytometry after 15 days. (b) Prior to flow cytometry, 5000 cells per group were taken from differentiating cultures for NLK kinase assay. (c) CD34+ progenitors were transduced with shRNA against luciferase or RPS19 and non-targeting or siRNA against NLK. After sorting, samples were split into two groups and either treated with vehicle or SD208 every three days. After 15 days cells were counted and subject to flow cytometry to compare the expansion of maturing CD235+ erythroid (left panel) and CD11b+ myeloid cells (right panel). (d) Cord Blood CD34+ progenitors were transduced with shRNA against luciferase (left panel) or RPS19 (right panel) differentiated in erythroid media for 15 days alone, or in the presence of SB525334 or SD208 at 5 μM. Cells were counted and CD235+ erythroid (D—upper) and CD11b+ myeloid cell (D—lower) percentages were determined by flow cytometry. The number of erythroid or myeloid cells is expressed as a percentage of the number of that lineage with no cytokine or drug treatment.
FIG. 8. NLK inhibition increases expansion of erythroid progenitors from human and murine models of DBA. Human cord blood CD34+ progenitors were transduced with lentivirus co-expressing GFP with shRNA against luciferase (shLuc), RPS19 (shRPS19) or RPL11 (shRPL11). After 36 hours cells GFP+ cells were differentiated in erythroid media in the presence or absence of 5 μM SD208 for 15 days. Cells were counted and assessed for cell surface expression of CD235. (a) The percentage of CD235+ cells was multiplied by the cell count and values were compared as a percentage of untreated controls. (b) Normalizing values relative to untreated RPS19-insufficiency progenitors facilitates direct comparison of erythropoiesis between untreated and SD208-treated cultures. (c) Approximately 3000 cells were removed from differentiating treatments at day 6 and NLK activity was assessed. Values were normalized to reflect a fold induction relative to untreated controls. (d) Lin-Kit+ hematopoietic progenitors were obtained from three mouse embryos expressing tetracycline-inducible shRNA against RPS19 at day E14.5 or three untreated mice, and thee mature RPL11^+/+ or three mature RPL11^+/lox mice treated with tamoxifen for eight weeks. Cells were grown in the presence or absence of doxycycline and/or SD208 for eight days prior to counting and assessing for ter119 surface expression. Values were expressed as a percentage relative to untreated controls (e) and directly comparing the effect of SD208 on erythropoiesis in ribosomal-insufficiency by expressing values relative to untreated ribosome-insufficient cultures (f). At day 5 approximately 3000 cells were assayed for NLK kinase assay (g). CD34+ HSPCs were isolated from three healthy control and three DBA patient mononuclear bone marrow aspirates by magnetic bead sorting and differentiated in the presence or absence of SD208 for 14 days. After counting the total cell population, the ratio of CD235+ erythroblasts was determined by flow cytometry and number of CD235+ erythroblasts calculated. This was expressed as a percentage of the average number of erythroid cells present in untreated healthy controls. (h) The direct effect of SD208 on erythroid expansion in DBA patient samples was calculated following normalization of untreated DBA patient samples as 1-fold, (i) At day five, 3000 cells from each of the differentiating cultures was analyzed for NLK activity by kinase assay and are expressed as a fold induction relative to untreated healthy controls. […]

In experiment [2] the test system is c-Kit+ erythroid progenitors in murine RPS19-insufficiency. In words: c-Kit+ erythroid expansion screen, tet-shRPS19 murine fetal liver cells (Cell titer-Glo). In kind it is cell-based, mouse. As to conditions: for rescue of c-Kit+ erythroid expansion: 10 μM, murine RPS19-insufficient model; for EC50: read-out: EC50 of rescue of erythroid growth in murine RPS19-insufficiency.

For another experiment, the system named is NLK 3′UTR. The experiment in a line: Luciferase fused to NLK 3′UTR in differentiating HSPCs. In kind it is cell-based, human.
Experiment [3] has as its system NLK. The experiment in a line: NLK expression in differentiating human progenitors (qRT-PCR, Western blot). In kind it is cell-based. Also on record: reduction of endogenous NLK expression: concentration or dose not given beside the values.
Setting [4] is: ginsenoside Rb1, metformin, alone and combined.
Where [5] appears, read: RPS19-insufficient progenitors, 50 mM metformin, 5 days.

Like-named read-outs stand apart in the source and are kept apart here.

Protocol for NLK 3′UTR: We generated a series of truncated NLK 3′UTRs fused to the luciferase gene and transduced them into control and RPS19-insufficient differentiating HSPCs. Cells were treated with increasing concentrations of ginsenoside Rb1 or metformin and luciferase activity assessed.

Consider `Cc1cccc(-c2nn3c(c2-c2ccnc4ccc(C(N)=O)cc24)CCC3)n1` [Galunisertib], for which the “reduction in kinase activity of NLK immuno-precipitated from treated cultures” value (“reduction in kinase activity” below) on NLK [1] is recorded as 61.2%.

Usually EC50 stands for the concentration needed to bring the measured effect to its halfway point. With `NC(=O)c1ccc(-c2nc(-c3ccc4c(c3)OCO4)c(-c3ccccn3)[nH]2)cc1` [SB431542], the “rescue of c-Kit+ erythroid expansion” value in experiment [2] was “significantly rescued”. Besides, the EC50 in experiment [2] (Mus musculus) is 5000 nM. Also, on NLK [1], the “reduction in kinase activity” value is 73.6%.

As to `Fc1ccc(Cl)cc1-c1nc(Nc2ccncc2)c2nccnc2n1` [SD208], the “rescue of c-Kit+ erythroid expansion” value in experiment [2] is recorded as “significantly rescued”. Moreover, in experiment [2], the EC50 was 700 nM. The “NLK activity, NLK phosphorylation, fold of untreated controls” value turned out to be 1.2 fold at NLK [1] (RPL11-insufficiency with SD208 5 μM, 3.0-fold without) and 1.2 fold on NLK [1] (RPS19-insufficiency with SD208 5 μM, 3.5-fold without). For the same molecule, the “NLK activity, Myb phosphorylation, fold of untreated controls” value at NLK [1] (RPL11-insufficiency with SD208 5 μM, 4.6-fold without) was determined as 1.38 fold; at NLK [1] (RPS19-insufficiency with SD208 5 μM, 5.2-fold without), 1.5 fold. For the same molecule, the “NLK activity, raptor phosphorylation, fold of untreated controls” value is 1.6 fold on NLK [1] (RPL11-insufficiency with SD208 5 μM, 7.3-fold without) and 1.7 fold on NLK [1] (RPS19-insufficiency with SD208 5 μM, 8.4-fold without). The “reduction in kinase activity” value on NLK [1] amounted to 92.5%.

Regarding `CC(C)=CCC[C@](C)(O[C@@H]1O[C@H](CO[C@@H]2O[C@H](CO)[C@@H](O)[C@H](O)[C@H]2O)[C@@H](O)[C@H](O)[C@H]1O)[C@H]1CC[C@]2(C)[C@@H]1[C@H](O)C[C@@H]1[C@@]3(C)CC[C@H](O[C@@H]4O[C@H](CO)[C@@H](O)[C@H](O)[C@H]4O[C@@H]4O[C@H](CO)[C@@H](O)[C@H](O)[C@H]4O)C(C)(C)[C@@H]3CC[C@]12C` [ginsenoside Rb1], the “reduction of luciferase activity (NLK 3′UTR)” value with NLK 3′UTR (50 mM ginsenoside Rb1) is recorded as 35.9%. In the experiment with NLK [3] (differentiating HSPCs, 5 mM), the “reduction of NLK protein” value came out at 31.5%. In addition, the “suppression of NLK expression” value worked out at 34.6% in the experiment on NLK [3] (setting [4]) and 34.6% in the experiment on NLK [3] (miRNA species transduced into differentiating HSPCs, ginsenoside Rb1 for comparison). The “reduction of endogenous NLK expression” value with NLK [3] (ginsenoside Rb1-treated differentiating HSPCs (miRNA sponge experiment)) worked out at 44.8%.

With `CN(C)C(=N)N=C(N)N` [metformin], the “reduction of luciferase activity (NLK 3′UTR)” value in the experiment on NLK 3′UTR (metformin) came to 67.5%. Further, the “suppression of NLK expression” value in the experiment on NLK [3] (setting [4]) came out at 59.4%. For the same molecule, on NLK [1] (setting [5]), the “reduction of phosphorylation of NLK” value came out at 48.5%, the “reduction of phosphorylation of c-Myb” value stood at 39.8% and the “reduction of phosphorylation of raptor” value is 40.2%.
